We go through 25 compounds from patent US7064120B2, “Tricyclic pyridyl carboxamides and derivatives thereof tocolytic oxytocin receptor antagonists” (Wyeth, priority 2001, dated 2006).

Each structure is given as a SMILES string.

The first experiment deals with T1, human vasopressin V1a receptor subtype (Homo sapiens, UniProt P37288).
T1 construct: host or cells: CHO cells, stably transfected (pZeoSV vector for the Thibonnier line)
T1 sequence (P37288 whole entry): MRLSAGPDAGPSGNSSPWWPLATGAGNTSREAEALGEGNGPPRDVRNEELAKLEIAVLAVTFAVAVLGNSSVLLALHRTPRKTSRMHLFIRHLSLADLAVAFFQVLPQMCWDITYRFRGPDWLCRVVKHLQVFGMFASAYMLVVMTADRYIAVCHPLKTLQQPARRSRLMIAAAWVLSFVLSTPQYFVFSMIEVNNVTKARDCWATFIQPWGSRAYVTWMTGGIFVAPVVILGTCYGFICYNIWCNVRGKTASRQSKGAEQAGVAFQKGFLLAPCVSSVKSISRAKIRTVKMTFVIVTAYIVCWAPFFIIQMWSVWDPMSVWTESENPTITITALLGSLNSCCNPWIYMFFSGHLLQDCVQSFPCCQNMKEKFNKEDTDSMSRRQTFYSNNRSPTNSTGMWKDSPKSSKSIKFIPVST
Put plainly: Vasopressin binding in CHO cell membranes expressing human vasopressin V1a subtype receptors ([3H]Manning ligand radioligand binding). The settings on record: 100 nM. The method, boiled down:
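Membranes from CHO cells expressing human V1a, 25–50 μg protein/well, incubated 60 min at room temperature with [3H]Manning ligand (20 μL of 8 nM stock) in 50 mM Tris-HCl pH 7.4 with BSA, MgCl2 and protease inhibitors. Filtration then scintillation counting; reported as % inhibition or IC50 (nM).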
As for `Cc1cc(C(=O)N2Cc3ccc(C(=O)NCc4ccncc4)n3Cc3ccccc32)ccc1-c1ccccc1C(F)(F)F` [Example 100, 10-{[2-Methyl-2′-trifluoromethyl-[1,1′-biphenyl]-4-yl]carbonyl}-N-(4-pyridinylmethyl)-10,11-dihydro-5H-pyrrolo[2,1-c][1,4]benzodiazepine-3-carboxamide], the inhibition – broadly, the drop in the measured response relative to a control, in per cent – at 0.1 µM is 10%. On the same count and under the same terms, the value for `COc1cc(-c2ccccc2C)c(Cl)cc1C(=O)N1Cc2ccc(C(=O)N3CCN(c4ccccn4)CC3)n2Cc2ccccc21` [Example 81, {10-[(6-Chloro-3-methoxy-2′-methyl-[1,1′-biphenyl]-4-yl)carbonyl]-10,11-dihydro-5H-pyrrolo[2,1-c][1,4]benzodiazepin-3-yl}[4-(2-pyridinyl)-1-piperazinyl]methanone] was -6%; that for `COc1ccccc1-c1ccc(C(=O)N2Cc3ccc(C(=O)N4CCN(c5ccccn5)CC4)n3Cc3ccccc32)cc1C` [Example 75, {10-[(2′-Methoxy-2-methyl-[1,1′-biphenyl]-4-yl)carbonyl]-10,11-dihydro-5H-pyrrolo[2,1-c][1,4]benzodiazepin-3-yl}[4-(2-pyridinyl)-1-piperazinyl]methanone] was -1%; that for `COc1cc(C(=O)N2Cc3ccc(C(=O)NCc4ccncc4)n3Cc3ccccc32)ccc1-c1cccc2ccccc12` [Example 96, 10-[3-Methoxy-4-(naphthalen-1-yl)benzoyl]-N-(4-pyridinylmethyl)-10,11-dihydro-5H-pyrrolo[2,1-c][1,4]benzodiazepine-3-carboxamide] was 7%. With `Cc1ccccc1-c1ccc(C(=O)N2Cc3ccc(C(=O)NCc4ccncc4)n3Cc3ccccc32)cc1C` [Example 89, 10-[(2,2′-Dimethyl-[1,1′-biphenyl]-4-yl)carbonyl]-N-(4-pyridinylmethyl)-10,11-dihydro-5H-pyrrolo[2,1-c][1,4]benzodiazepine-3-carboxamide], the inhibition at 0.1 µM came out at 29%.

Turning to `COc1ccccc1-c1ccc(C(=O)N2Cc3ccc(C(=O)N(C)CCc4ccccn4)n3Cc3ccccc32)cc1` [Example 67, 10-[(2′-Methoxy-[1,1′-biphenyl]-4-yl)carbonyl]-N-methyl-N-[2-(2-pyridinyl)ethyl]-10,11-dihydro-5H-pyrrolo[2,1-c][1,4]benzodiazepine-3-carboxamide], the inhibition at 0.1 µM stood at 40%. In the case of `Cc1cc(C(=O)N2Cc3ccc(C(=O)N4CCN(c5ccccn5)CC4)n3Cc3ccccc32)ccc1-c1ccccc1C(F)(F)F` [Example 87, (10-{[2-Methyl-2′-trifluoromethyl-[1,1′-biphenyl]-4-yl]carbonyl}-10,11-dihydro-5H-pyrrolo[2,1-c][1,4]benzodiazepin-3-yl)[4-(2-pyridinyl)-1-piperazinyl]methanone], the inhibition at 0.1 µM is 1%. For `COc1cccc(-c2cc(OC)c(C(=O)N3Cc4ccc(C(=O)N5CCN(c6ccccn6)CC5)n4Cc4ccccc43)cc2Cl)c1` [Example 82, {10-[(6-Chloro-3,3′-dimethoxy-[1,1′-biphenyl]-4-yl)carbonyl]-10,11-dihydro-5H-pyrrolo[2,1-c][1,4]benzodiazepin-3-yl}[4-(2-pyridinyl)-1-piperazinyl]methanone], the inhibition at 0.1 µM was -1%. Still for that read-out and setting: the value for `COc1cc(C(=O)N2Cc3ccc(C(=O)N(C)CCc4ccccn4)n3Cc3ccccc32)ccc1-c1ccccc1C` [Example 69, 10-[(2-Methoxy-2′-methyl-[1,1′-biphenyl]-4-yl)carbonyl]-N-methyl-N-[2-(2-pyridinyl)ethyl]-10,11-dihydro-5H-pyrrolo[2,1-c][1,4]benzodiazepine-3-carboxamide] was 72%; that for `COc1cc(C(=O)N2Cc3ccc(C(=O)N4CCN(c5ccccn5)CC4)n3Cc3ccccc32)ccc1-c1ccccc1C` [Example 80, {10-[(2-Methoxy-2′-methyl-[1,1′-biphenyl]-4-yl)carbonyl]-10,11-dihydro-5H-pyrrolo[2,1-c][1,4]benzodiazepin-3-yl}[4-(2-pyridinyl)-1-piperazinyl]methanone] was 6%; that for `Cc1ccccc1-c1ccc(C(=O)N2Cc3ccc(C(=O)N(C)CCc4ccccn4)n3Cc3ccccc32)cc1C` [Example 66, 10-[(2,2′-Dimethyl-[1,1′-biphenyl]-4-yl)carbonyl]-N-methyl-N-[2-(2-pyridinyl)ethyl]-10,11-dihydro-5H-pyrrolo[2,1-c][1,4]benzodiazepine-3-carboxamide] was 58%. As to `Cc1cc(C(=O)N2Cc3ccc(C(=O)N4CCN(c5ccncc5)CC4)n3Cc3ccccc32)ccc1-c1ccccc1C(F)(F)F` [Example 1], the “V1a % inhibition @ 100 nM” value came out at 9%. On to `COc1cccc(-c2ccc(C(=O)N3Cc4ccc(C(=O)N(C)CCc5ccccn5)n4Cc4ccccc43)cc2OC)c1` [Example 72, 10-[(2,3′-Dimethoxy-[1,1′-biphenyl]-4-yl)carbonyl]-N-methyl-N-[2-(2-pyridinyl)ethyl]-10,11-dihydro-5H-pyrrolo[2,1-c][1,4]benzodiazepine-3-carboxamide], for which the inhibition at 0.1 µM amounted to 54%. Same read-out and setting: the value for `COc1ccccc1-c1ccc(C(=O)N2Cc3ccc(C(=O)N4CCN(c5ccccn5)CC4)n3Cc3ccccc32)cc1` [Example 78, {10-[(2′-Methoxy-[1,1′-biphenyl]-4-yl)carbonyl]-10,11-dihydro-5H-pyrrolo[2,1-c][1,4]benzodiazepin-3-yl}[4-(2-pyridinyl)-1-piperazinyl]methanone] was 6%; that for `COc1ccccc1-c1ccc(C(=O)N2Cc3ccc(C(=O)NCc4ccncc4)n3Cc3ccccc32)cc1OC` [Example 97, 10-[(2,2′-Dimethoxy-[1,1′-biphenyl]-4-yl)carbonyl]-N-(4-pyridinylmethyl)-10,11-dihydro-5H-pyrrolo[2,1-c][1,4]benzodiazepine-3-carboxamide] was 4%.

`COc1cccc(-c2cc(OC)c(C(=O)N3Cc4ccc(C(=O)NCc5ccncc5)n4Cc4ccccc43)cc2Cl)c1` [Example 95, 10-[(6-Chloro-3,3′-dimethoxy-[1,1′-biphenyl]-4-yl)carbonyl]-N-(4-pyridinylmethyl)-10,11-dihydro-5H-pyrrolo[2,1-c][1,4]benzodiazepine-3-carboxamide]: the inhibition at 0.1 µM was determined as 1%. With `O=C(c1ccc2n1Cc1ccccc1N(C(=O)c1ccc(-c3cccc4ccccc34)cc1Cl)C2)N1CCN(c2ccccn2)CC1` [Example 86, {10-[2-Chloro-4-(naphthalen-1-yl)benzoyl]-10,11-dihydro-5H-pyrrolo[2,1-c][1,4]benzodiazepin-3-yl}[4-(2-pyridinyl)-1-piperazinyl]methanone], the inhibition at 0.1 µM turned out to be 1%.

Staying with this experiment, now noted: value in parentheses.
As to `Cc1cc(C(=O)N2Cc3ccc(C(=O)N4CCN(Cc5ccc[n+]([O-])c5C)CC4)n3Cc3ccccc32)ccc1-c1ccccc1C(F)(F)F` [Example 3, 3-({4-[(2-Methyl-1-oxidopyridin-3-yl)methyl]piperazin-1-yl}carbonyl)-10-{[2-methyl-2′-trifluoromethyl-[1,1′-biphenyl]-4-yl]carbonyl}-10,11-dihydro-5H-pyrrolo[2,1-c][1,4]benzodiazepine], the IC50 (in general, the midpoint of a concentration-inhibition curve) was greater than 3 µM. Still for that read-out and setting: the value for `COc1cccc(-c2ccc(C(=O)N3Cc4ccc(C(=O)N(C)Cc5cccnc5)n4Cc4ccccc43)cc2C)c1` [Example 102, 10-[(3′-Methoxy-2-methyl-[1,1′-biphenyl]4-yl)carbonyl]-N-methyl-N-(3-pyridinyImethyl)-10,11-dihydro-5H-pyrrolo[2,1-c][1,4]benzodiazepine-3-carboxamide] was 0.275 µM.

With `COc1cccc(-c2ccc(C(=O)N3Cc4ccc(C(=O)N(C)CCc5ccccn5)n4Cc4ccccc43)cc2C)c1` [Example 62, 10-[(3′-Methoxy-2-methyl-[1,1′-biphenyl]-4-yl)carbonyl]-N-methyl-N-[2-(2-pyridinyl)ethyl]-10,11-dihydro-5H-pyrrolo[2,1-c][1,4]benzodiazepine-3-carboxamide], the IC50 is 0.177 µM. With `Cc1cc(C(=O)N2Cc3ccc(C(=O)N4CCN(Cc5ccc[n+]([O-])c5)CC4)n3Cc3ccccc32)ccc1-c1ccccc1C(F)(F)F` [Example 2, 10-{[2-Methyl-2′-trifluoromethyl-[1,1′-biphenyl]-4-yl]carbonyl}-3-({4-[(1-oxidopyridin-3-yl)methyl]piperazin-1-yl}carbonyl)-10,11-dihydro-5H-pyrrolo[2,1-c][1,4]benzodiazepine], the IC50 was found to be 3.18 µM. Still for that read-out and setting: for `COc1cc(C(=O)N2Cc3ccc(C(=O)N(C)Cc4cccnc4)n3Cc3ccccc32)ccc1-c1ccccc1C(F)(F)F` [Example 7, 10-{[2-Methoxy-2′-trifluoromethyl-[1,1′-biphenyl]-4-yl]carbonyl}-N-methyl-N-(pyridin-3-ylmethyl)-10,11-dihydro-5H-pyrrolo[2,1-c][1,4]benzodiazepine-3-carboxamide] the value was 0.803 µM. As for `COc1cc(-c2ccccc2Cl)c(Cl)cc1C(=O)N1Cc2ccc(C(=O)N(C)Cc3cccnc3)n2Cc2ccccc21` [Example 6, 10-[(2′,6-Dichloro-3-methoxy-[1,1′-biphenyl]-4-yl)carbonyl]-N-methyl-N-(pyridin-3-ylmethyl)-10,11-dihydro-5H-pyrrolo[2,1-c][1,4]benzodiazepine-3-carboxamide], the IC50 amounted to 0.928 µM. The same measure, in the same setting: for `COc1ccccc1-c1ccc(C(=O)N2Cc3ccc(C(=O)N(C)Cc4cccnc4)n3Cc3ccccc32)cc1C` [Example 101, 10-[(2′-Methoxy-2-methyl-[1,1′-biphenyl]-4-yl)carbonyl]-N-methyl-N-(3-pyridinylmethyl)-10,11-dihydro-5H-pyrrolo[2,1-c][1,4]benzodiazepine-3-carboxamide] the value was 0.355 µM. On to `COc1cc(-c2ccccc2C(F)(F)F)c(Cl)cc1C(=O)N1Cc2ccc(C(=O)N(C)Cc3cccnc3)n2Cc2ccccc21` [Example 5, 10-{[6-Chloro-3-methoxy-2′-trifluoromethyl-[1,1′-biphenyl]-4-yl]carbonyl}-N-methyl-N-(pyridin-3-ylmethyl)-10,11-dihydro-5H-pyrrolo[2,1-c][1,4]benzodiazepine-3-carboxamide], for which the IC50 was greater than 3 µM.
